Measured values published in patent US20060246115A1, “Nutritional products for ameliorating symptoms of rheumatoid arthritis” (priority 2005, published 2006).

Columns and labels:
[1] = system: IL-6; test: Experiment 1: IL-6 ELISA in joint homogenates; format: in vivo, mice
Procedure: (§1) The following parameters are measured in joint homogenates: antibodies against type II collagen (IgG2a); proinflammatory cytokines: IL-1β and IL-6; counter-regulatory cytokines: IL-10; and Matrix metalloproteinases: MMP-9. Antibodies against type II collagen (IgG2a) are also measured in serum. Cytokines and MMP-9 in homogenized joints are measured by ELISA using commercial kits from BIOTRAK (Amersham Pharmacia Biotech) following the supplier instructions and using joint homogenates without any further dilution.

[2] = system: type II collagen-immunized mice (collagen-induced arthritis); test: Experiment 1: collagen-induced arthritis (CIA) in mice, clinical assessment; format: in vivo; settings: prednisolone 5 mg/kg i.p. daily
Procedure: Tests are conducted under a model of rheumatoid arthritis in mice (collagen-induced arthritis or CIA) that shares some similarities with the human disease. The tests evaluate the effect of plant extracts and Oxepa®, on the severity of CIA and concentration of inflammatory mediators.
Seven week-old DBA/1J (H-2^q) male mice (n=105) are purchased from Harlan (Barcelona, Spain) and housed in plastic cages (5 animals each) with free access to food and water.
The procedure followed for the animal immunization is carried out by injecting 100 μl of bovine collagen II emulsion (type II collagen in complete Freund's adjuvant) intradermically in the base of the tail. Collagen is supplied by Chondrex (MDbiosciences, Switzerland) and the emulsion is prepared as follows: collagen is dissolved in 0.05M acetic acid (2 mg/ml) overnight at 4° C. with constant, but gentle stirring and emulsified with Freund's adjuvant (1:1). The Freund's adjuvant is added drop by drop while mixing in a high-speed homogenisator (ultraturrax) at 27,000 rpm. […]
Mice are assessed daily for clinical symptoms of inflammation, and their weights are measured. […]
For the statistical analysis, outliers are removed if they differed from the mean more than three standard deviations. Homogeneity of variances is analysed by Levene's test. […] The classification of arthritic index into categories is analysed by Chi-squared.

[3] = system: IL-1β; test: Experiment 1: IL-1β ELISA in joint homogenates; format: in vivo, mice
Procedure: (§2) The following parameters are measured in joint homogenates: antibodies against type II collagen (IgG2a); proinflammatory cytokines: IL-1β and IL-6; counter-regulatory cytokines: IL-10; and Matrix metalloproteinases: MMP-9. Antibodies against type II collagen (IgG2a) are also measured in serum.
Cytokines and MMP-9 in homogenized joints are measured by ELISA using commercial kits from BIOTRAK (Amersham Pharmacia Biotech) following the supplier instructions and using joint homogenates without any further dilution.

[4] = system: antibodies against type II collagen (IgG2a); test: Experiment 1: anti-CII IgG2a ELISA in serum and joint homogenates; format: in vivo, mice
Procedure: Blood samples are taken from the retroorbital sinus under light anesthesia and the animals are immediately sacrificed by cervical dislocation. Fore and hind limbs are dissected and frozen at −80° C. Blood samples are allowed to cloth for 1 hour at room temperature and the serum is separated from blood cells by centrifugation at 6,500 g for 10 min.
as §2
Specific anti-CII—IgG2a in joints and serum of mice is determined by ELISA. Briefly, 96-well microtiter plates are coated overnight with CII at 4° C., washed with 0.05% Tween-PBS, blocked with 1% bovine serum albumin-PBS for 2 h at room temperature and then washed again. Samples are diluted with PBS before assay: 1:16000 for serum and 1:50 for homogenized joints. Fifty (50) μL of standards (type II collagen Ab-2, clone 2B1.5, NeoMarkers) from 0 to 500 ng/ml and samples are added to each well in duplicate, and incubated 2 h at 37° C. […] Finally the absorbance is measured in a microplate reader at 405 nm.

[5] = system: type II collagen-immunized mice (collagen-induced arthritis); test: Experiment 3: CIA in mice, arthritis index, onset and incidence; format: in vivo; settings: prednisolone i.p. daily
[6] = system: MMP-9; test: Experiment 1: MMP-9 ELISA in joint homogenates; format: in vivo, mice
Procedure: as §1

[7] = system: histological structure of cartilage and bone of arthritic joints; test: Experiment 3: histological scoring of joints of CIA mice (H&E); format: in vivo
From the text: Experiment 1 is repeated and the test animals evaluated for various histological changes associated with each control or treatment group. The purpose of this experiment is to show the effect of Boswellia serrata and Phlebodium decumanum extracts and Oxepa® on the histological structure of cartilage and bone in the same experimental model as described above. After again completing the above-described model, the mice are sacrificed 10 days after the arthritis onset by cervical dislocation under light anesthesia. Fore and hind limbs are dissected and the skin removed. Each is then immersed in 4% buffered formaldehyde for 2-3 days. Afterwards, each is treated with decalcificant solution for 2 hours and treated again for 60-90 minutes more. The samples are dehydrated with alcohol solutions of increasing concentrations, embedded in paraffin, cut into 4 μm slices and stain with hematoxilin and eosin (H&E). The following joints are thereafter studied: elbow, radio-cubito-carpo (wrist), carpo-metacarpo and metacarpo-phalange in fore limbs, and knee, tibio-tarso (ankle), tarso-metatarso, metatarso-phalange in hind limbs. Typical alterations of arthritic joints are considered, such as synovial inflammation, pannus formation, cartilage damage and bone destruction, and are scored on a nominal scale from 0 to 3. The scale is defined for each parameter as follows: Synovial inflammation: 0=Absence: normal synovial-periarticular tissue; 1=mild: infiltration of inflammatory cells in the periarticular tissue; 2=moderated: cell infiltration and moderated edema; 3=severe: marked cell infiltration and edema. Pannus formation: None (0), mild (1), moderate (2) or severe (3) proliferation of synovial tissue at the synovium-cartilage junction. Cartilage damage: 0=Absence: normal cartilage; 1=mild: damage of Zone I (external) with slight loss of chondrocytes and/or collagen disruption; 2=moderated: damage of Zone II (internal) with moderate loss of chondrocytes and/or collagen disruption: 3=severe: severe damage of all Zones with multifocal losses of chondrocytes and/or collagen disruption. Subchondral bone destruction: 0=Absence: normal bone; 1=mild: some areas of cortical degradation, few osteoclasts; 2=moderated: clear bone degradation with moderate medular damage, more osteoclasts; 3=severe: intense cortical and medular bone destruction, numerous osteoclasts. The scores of all joints are summed to obtain a general score for each histological parameter and animal. The histopathologist is not aware of the study groups during the evaluation of the samples. Homogeneity of variances are tested by the Bartelett's test. If homogeneity of variances is met, data are analysed by one-way ANOVA. If variances are not homogeneous, non-parametric procedures are used. The analysis is done by the Graph Pad Prism Software version 4.

[8] = individual mice, sum of scores (0-3) of all joints

## C[C@]12C=CC(=O)C=C1CC[C@@H]1[C@@H]2[C@@H](O)C[C@@]2(C)[C@H]1CC[C@]2(O)C(=O)CO [prednisolone]
[1]
  content of IL-6 in joint homogenates versus control: lower
[2]
  development of arthritis: do not develop arthritis
[3]
  content of IL-1β in joint homogenates versus control: lower
[4]; joint homogenates
  IgG2a levels in joint homogenates versus control: significantly lower
[4]; serum
  IgG2a levels in serum versus control: significantly lower
[5]
  development of arthritis: do not develop arthritis
[6]
  content of MMP-9 in joint homogenates versus control: lower
[7]; [8]
  Bone score: 0
  Cartilage score: 0
  Inflammation score: 0
  Pannus score: 0
[7]; knee, left hind limb, H&E, FIG. 9
  joint appearance, histological slide: normal joint
